Source: patent EP0072027A1, “Antiviral compounds” (THE WELLCOME FOUNDATION LIMITED, priority 1981, dated 1983)
Values after ≈ are worked out from the molar mass of the structure shown.

Assays:
adenosine deaminase = adenosine deaminase (Homo sapiens, UniProt P00813); conditions: Tetrahedron Letters, 21, 1980, 327-330; cited from earlier work
[1] = tested on: herpes simplex virus type 1; experiment: Comparative in vivo activity against herpetic encephalitis in mice (Example 18); design: species or system CD.1 mice; conditions: for Mean reciprocal survival time: 100 mg/kg/dose twice daily for 4½ days, 300 LD50
Description: CD.1 mice weighing 16 - 20 gm were obtained from Charles River, Manston, Kent, U.K. The animals were housed in groups of approximately 10 and were given food and water ad lib.
The compounds namely acyclovir, 134U, 759U and 457U, were prepared as suspensions or solutions in sterile water at a concentration of 20 mg/ml prior to each experiment, and were stored at 4°C during the dosing period.
The ICI strain of herpes simplex virus type 1 was used for all experiments at a concentration of 300 LD50 (10^5 pfu)/ml). Dilutions from virus stocks ([…]) were prepared in PBS 'A'.
The test procedure is analoguous to that described in Example 13.
Three experiments were performed, in which three routes of compound administration were examined: i) subcutaneous, ii) oral and iii) intraperitoneal. […]

Solubility in water = format: physicochemical
Source text: As mentioned above, the compounds of formula (I) have the important advantage of having a greater solubility in water than acyclovir. Thus, the compounds of formula (I) wherein X is an oxygen atom and R is a hydroxy group or amino group have solubilities of 0.4 -.0.5% and 2 - 3% w/w respectively compared with a figure of 0.14% w/w for acyclovir.

[2] = tested on: EHV-1 Pneumabort vaccine strain; experiment: Comparative in vivo activity against equine rhinopneumonitis virus in hamsters, medicated drinking water (Example 15); design: species or system Syrian hamsters; conditions: for Cumulative mortality (out of 15) on day: water conc. 0.075 mg/ml, average intake 6.6-6.8 mg/kg/day
Description: 50 male WO/CR Syrian hamsters were caged randomly in 10 groups of 5, with water and food (seed mix) ad lib. Hamsters were weighed on Days -3, 0, 4, and/or- at death/sacrifice. Water consumption was recorded over Days -3 to 0 to 4.
EHV-1 Pneumabort vaccine strain stored as a 10^-1 dilution, was further diluted 10^-1 in PBS for infection. On Day 0, hamsters in Groups 1-9 received 0.2 ml virus inoculum s/c in the left flank equivalent to about 2 x 10^5 PFU (plaque-forming units).
457U and 759U were dissolved in drinking water at 0.075 mg/ml. Assuming an average daily intake of […], this would result in a daily dose of around 10 mg/kg. Medicated water was provided from approximately 5 hours pre-infection for 96 hours, as below
The drug intake was calculated from the weight of the animals and the water consumption recorded over the period of the experiment.

Sequence of adenosine deaminase (P00813 whole entry): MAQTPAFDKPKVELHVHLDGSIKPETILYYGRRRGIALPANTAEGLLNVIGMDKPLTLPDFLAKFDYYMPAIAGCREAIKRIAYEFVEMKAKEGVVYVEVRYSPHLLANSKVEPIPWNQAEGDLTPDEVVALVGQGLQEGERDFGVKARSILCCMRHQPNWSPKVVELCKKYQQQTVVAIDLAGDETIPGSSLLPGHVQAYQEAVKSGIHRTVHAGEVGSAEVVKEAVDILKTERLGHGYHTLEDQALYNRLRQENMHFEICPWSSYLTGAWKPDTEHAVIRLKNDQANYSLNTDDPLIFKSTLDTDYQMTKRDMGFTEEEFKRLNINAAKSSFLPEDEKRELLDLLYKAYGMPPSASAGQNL

Row | Structure (SMILES) | competitive inhibition of the enzyme (adenosine deaminase) | substrate for the enzyme (adenosine deaminase) | Mean reciprocal survival time ([1]; Oral) | Mean reciprocal survival time ([1]; i.p.) | Mean reciprocal survival time ([1]; s.c.) | solubility (Solubility in water) [mg/mL] | antiviral effect compared with acyclovir and 134U ([1]; any of the three routes, difference highly significant) | deaths from virus-induced hepatitis ([2]; in 15 treated hamsters, 14 deaths in 15 untreated controls) | prevention of EHV-1 induced mortality ([2]; orally in drinking water, approximately 7 mg/kg/day) | Cumulative mortality (out of 15) on day ([2]; day 2) | Cumulative mortality (out of 15) on day ([2]; day 3) | Cumulative mortality (out of 15) on day ([2]; day 4+)
1 | Nc1ncnc2c1ncn2COC(CO)CO | weak competitive inhibitor | poor substrate |  |  |  |  |  |  |  |  |  | 
2 | Nc1nc(N)c2ncn(COCCO)c2n1 [Example 134U, 2-amino-9-(2-hydroxy-methoxymethyl) adenine, reference compound] |  |  | 0.222 | 0.231 | 0.226 |  |  |  |  |  |  | 
3 | Nc1nc(N)c2ncn(COC(CO)CO)c2n1 [Example 457U, 9-[(2-hydroxy-1-hydroxymethylethoxy)methyl]-2,6-diaminopurine] |  |  | 0.155 | 0.077 | 0.102 | 20 to 30 (≈ 78.7 to 118 mM) | greatest antiviral effect | 1 | almost completely prevented | 0 | 1 | 1
